For the experiment, the target named is T1, DkFGT (GST-DkFGT) (Diospyros kaki, UniProt C8KH59).
T1 sequence (C8KH59 1-459): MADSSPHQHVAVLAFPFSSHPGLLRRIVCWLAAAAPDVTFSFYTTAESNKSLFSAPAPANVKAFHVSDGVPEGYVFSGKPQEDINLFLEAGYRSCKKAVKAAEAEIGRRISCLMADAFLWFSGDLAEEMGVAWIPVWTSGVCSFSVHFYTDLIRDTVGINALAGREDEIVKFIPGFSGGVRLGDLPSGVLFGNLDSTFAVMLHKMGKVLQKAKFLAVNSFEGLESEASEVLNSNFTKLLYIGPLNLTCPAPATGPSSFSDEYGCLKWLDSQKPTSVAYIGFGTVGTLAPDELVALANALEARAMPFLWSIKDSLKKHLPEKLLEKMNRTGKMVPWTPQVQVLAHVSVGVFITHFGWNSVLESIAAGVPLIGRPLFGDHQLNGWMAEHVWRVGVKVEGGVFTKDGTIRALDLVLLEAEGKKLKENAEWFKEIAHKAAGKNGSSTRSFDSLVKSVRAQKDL
Nature of the experiment: biochemical.

In the case of `Oc1ccc(-c2[o+]c3cc(O)cc(O)c3cc2O)cc1` [pelargonidin], the Km stood at 186 µM. In the case of `O=c1c(O)c(-c2ccc(O)cc2)oc2cc(O)cc(O)c12` [kaempferol], the Km was determined as 143 µM.

The record behind these values is publication PMC2729980 (Planta, 2009).
